Literature values as cited in US8865899B2 (AstraZeneca AB, priority 2006, dated 2014).

Assays:
VEGF RTK = conditions: statement in words, background
tumour models = conditions: once-daily oral administration; Wedge et al, Proc. Am. Assoc. Canc. Res. 2001; 42: abstract 3126

COc1cc2c(Nc3ccc(Br)cc3F)ncnc2cc1OCC1CCN(C)CC1 [ZD6474, 4-(4-bromo-2-fluoroanilino)-6-methoxy-7-(1-methylpiperidin-4-ylmethoxy)quinazoline]
inhibition of VEGF RTK (VEGF RTK): potent inhibitor | anti-tumour activity (tumour models): broad-spectrum anti-tumour activity
